Measured values reported in PubChem BioAssay AID1897 (NMMLSC, 2009).
Activity calls are given as the source filed them. No rule for the calls is given here.

Biological target: Mitogen-activated protein kinase kinase kinase 2 (Homo sapiens) + Dual specificity mitogen-activated protein kinase kinase 5 (Homo sapiens) (UniProt Q9Y2U5+Q13163)
Experiment: MEKK2 PB1-MEK5 interaction blockers – biochemical, bead multiplex flow cytometry, wildtype, dose response (AID 1897)
Conditions: MEK5-MEKK2 PB1 binding; for Ki: measured here: Ki from binding competition

Chain of Mitogen-activated protein kinase kinase kinase 2 (Homo sapiens) + Dual specificity mitogen-activated protein kinase kinase 5 (Homo sapiens) (Q13163 whole entry, looked up): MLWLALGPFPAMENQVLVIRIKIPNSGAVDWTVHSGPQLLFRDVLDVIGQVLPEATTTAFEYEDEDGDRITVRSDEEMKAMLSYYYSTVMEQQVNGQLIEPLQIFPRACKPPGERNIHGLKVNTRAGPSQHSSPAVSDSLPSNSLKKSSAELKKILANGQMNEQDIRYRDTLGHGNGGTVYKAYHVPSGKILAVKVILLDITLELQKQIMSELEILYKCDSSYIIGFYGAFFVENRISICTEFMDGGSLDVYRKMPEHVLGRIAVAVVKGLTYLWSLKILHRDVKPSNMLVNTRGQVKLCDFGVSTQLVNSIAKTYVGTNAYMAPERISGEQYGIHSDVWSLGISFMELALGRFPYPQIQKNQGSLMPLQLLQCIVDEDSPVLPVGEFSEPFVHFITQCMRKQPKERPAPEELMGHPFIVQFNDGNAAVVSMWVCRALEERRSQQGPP
Chain of Mitogen-activated protein kinase kinase kinase 2 (Homo sapiens) + Dual specificity mitogen-activated protein kinase kinase 5 (Homo sapiens) (Q9Y2U5 whole entry, looked up): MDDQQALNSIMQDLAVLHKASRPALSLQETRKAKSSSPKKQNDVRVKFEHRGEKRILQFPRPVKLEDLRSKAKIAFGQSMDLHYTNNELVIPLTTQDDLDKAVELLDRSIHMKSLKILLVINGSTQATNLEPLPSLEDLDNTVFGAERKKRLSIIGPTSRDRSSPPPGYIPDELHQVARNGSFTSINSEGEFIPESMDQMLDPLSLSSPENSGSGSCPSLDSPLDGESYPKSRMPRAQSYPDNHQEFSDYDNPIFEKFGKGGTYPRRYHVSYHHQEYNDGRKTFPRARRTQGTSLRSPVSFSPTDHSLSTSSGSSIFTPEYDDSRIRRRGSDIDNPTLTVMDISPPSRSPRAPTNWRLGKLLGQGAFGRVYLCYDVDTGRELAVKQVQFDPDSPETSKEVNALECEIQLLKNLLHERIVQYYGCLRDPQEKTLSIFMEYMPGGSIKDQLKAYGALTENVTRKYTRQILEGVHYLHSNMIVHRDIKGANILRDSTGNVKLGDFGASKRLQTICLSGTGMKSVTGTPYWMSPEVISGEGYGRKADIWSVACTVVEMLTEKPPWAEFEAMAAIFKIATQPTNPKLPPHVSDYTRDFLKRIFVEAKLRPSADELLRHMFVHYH

| SMILES | EC50 | Ki [µM] |
| --- | --- | --- |
| CCOC(=O)c1c(CSC(=N)N)n(-c2ccc(C)cc2)c2cc(Br)c(OC(C)=O)cc12 | 5.2 µM | – |
| Cc1cc2cc(CNC(=O)NC3CCCCC3)ccc2[nH]1 | 4.13 µM | 3.69 |
| CCN1/C(=C/C=C/C=C/C=C/c2sc3ccccc3[n+]2CC)Sc2ccccc21 | > 30 µM (inactive) | – |
| CCN(Cc1ccccc1)S(=O)(=O)c1ccc(C(=O)N(CCCN(C)C)c2nc3ccc(F)cc3s2)cc1 | 5.81 µM | – |
| CCOC(=O)c1c(-c2ccc(-c3ccccc3)cc2)csc1NC(=O)CNCCN(C)C | 1.55 µM | – |
| CCCN1C(=O)/C(=C\C=C2/Sc3ccccc3N2CC)SC1=S | 3.03 µM | 2.71 |
| Cc1nc(Nc2cnc(/C=C/c3cc(C(=O)Nc4cccc(C(F)(F)F)c4)ccc3C)cn2)cc(N2CCNCC2)n1 | > 30 µM (inactive) | – |
| COc1ccccc1N(CN1C(=O)c2ccccc2C1=O)C(=O)c1cccc(C)c1 | > 30 µM (inactive) | – |
| O=C(OCC1O[C@@H](OC(=O)c2cc(O)c(O)c(O)c2)[C@@H](OC(=O)c2cc(O)c(O)c(O)c2)[C@@H](OC(=O)c2cc(O)c(O)c(O)c2)[C@@H]1OC(=O)c1cc(O)c(O)c(O)c1)c1cc(O)c(O)c(O)c1 (some centres not stated) | > 30 µM (inactive) | – |
| COc1ccc(-c2[nH]ncc2CN2CCCCCCC2)c(OC)c1 | > 30 µM (inactive) | – |
| C#CCOCCOCCOCCNc1nc(N2CCN(C(=O)C(Cc3ccc(O)cc3)n3cc(C(N)CC(C)C)nn3)CC2)nc(N2CCN(C(=O)C(Cc3cc4ccccc4[nH]3)n3cc(C(N)Cc4ccc(O)cc4)nn3)CC2)n1 (configuration not stated) | 6.12 µM | – |
| CCc1ccc(-c2nn(-c3ccccc3)cc2CSC(=N)N)cc1 | 5.12 µM | – |
| COc1ccc2[nH]c3c(C)c4ccncc4c(C)c3c2c1 | > 30 µM (inactive) | – |
| NC(N)=N/N=C/c1ccc(OCc2ccccc2Cl)cc1 | 19.2 µM | – |
| CN(C)c1ccc(NC(=O)CN2CCC(O)(c3ccccc3)CC2)cc1 | > 30 µM (inactive) | – |
| COc1ccc(CNC[C@@H](CCCCN(C)Cc2ccc(OC)cc2)N2C[C@H](c3ccccc3)N(CCc3ccc(Cl)c(Cl)c3)C(=O)C2=O)cc1 | 1.48 µM | – |
| C#CCOCCOCCOCCNc1nc(N2CCN(C(=O)[C@H](Cc3cc4ccccc4[nH]3)n3cc([C@@H](N)C(C)CC)nn3)CC2)nc(N2CCN(C(=O)[C@H](Cc3cc4ccccc4[nH]3)n3cc([C@@H](N)Cc4ccc(O)cc4)nn3)CC2)n1 (some centres not stated) | 1.01 µM | – |
| COc1ccccc1N1CCN(S(=O)(=O)c2ccc(Cl)s2)CC1 | > 30 µM (inactive) | – |

| SMILES | EC50 | Ki [µM] |
| --- | --- | --- |
| O=C1Nc2ccc(Br)cc2/C1=N/N=C/C1=C(N2CCOCC2)C(=C\c2ccccc2)/CC1 | 1.87 µM | 1.68 |
| COc1ccc(-c2cc(C#N)nc(N3CCNCC3)n2)cc1 | > 30 µM (inactive) | – |
| COc1ccc(C2NCCc3c2[nH]c2ccccc32)cc1CN1CCc2cc(OC)c(OC)cc2C1C (configuration not stated) | 10.5 µM | – |
| CCN1C(c2ccccc2)=C(c2ccccc2)S/C1=C/C=C1\SC(=S)N(C)C1=O | 2.73 µM | 2.44 |
| C#CCOCCOCCOCCNc1nc(N2CCN(C(=O)[C@H](Cc3ccc(O)cc3)n3cc([C@@H](N)C(C)CC)nn3)CC2)nc(N2CCN(C(=O)[C@H](Cc3cc4ccccc4[nH]3)n3cc([C@@H](N)Cc4ccc(O)cc4)nn3)CC2)n1 (some centres not stated) | 12.5 µM | – |
| N=C(N)SCc1cn(-c2ccccc2)nc1-c1ccc(Br)cc1 | 3.13 µM | – |
| O=[N+]([O-])c1ccc(/C=C/C2=NN(c3ccccc3)C(c3ccco3)C2)o1 (configuration not stated) | > 30 µM (inactive) | – |
| CNC[C@H](CC1CCCCC1)NC[C@H](Cc1ccccc1)NCCC12CC3CC(CC(C3)C1)C2 | 4.93 µM | – |
| CCCOc1ccc2c(c1)C(=NN=C(N)N)c1cc(OCCC)ccc1-2 | 4.59 µM | – |
| S=c1[nH]nc(-c2ccc(Cl)cc2)n1-c1ccc2c(c1)OCCO2 | > 30 µM (inactive) | – |
| COc1cc(CNCCc2c[nH]c3ccccc23)ccc1OCc1ccccc1F | > 30 µM (inactive) | – |
| C#CCOCCOCCOCCNc1nc(N2CCN(C(=O)[C@H]([C@@H](C)CC)n3cc([C@@H](N)CC(C)C)nn3)CC2)nc(N2CCN(C(=O)[C@H](Cc3cc4ccccc4[nH]3)n3cc([C@@H](N)CC(C)C)nn3)CC2)n1 | 7.74 µM | – |
| CCCCCCOc1ccc(/C(C)=N/NC2=NCCN2)cc1[N+](=O)[O-] | 9.29 µM | – |
| Cc1sc(NC(=O)c2ccccc2)c(C(c2ccccn2)N2CCN(CCO)CC2)c1C (configuration not stated) | > 30 µM (inactive) | – |
| O=C(Nc1ccc(Cl)cn1)c1ccc2c(Cl)c3c(nc2c1)CCC3 | > 30 µM (inactive) | – |
| CCN1CCN(CCNC(=O)c2ccc(/C=C3/Sc4ccccc4N(Cc4cccc(Cl)c4)C3=O)cc2)CC1 | 3.78 µM | – |
| CCOc1cccc2sc(N(CCCN(C)C)C(=O)c3ccc(S(=O)(=O)N4CCc5ccccc5C4)cc3)nc12 | 13.2 µM | – |

The next lines start with the values.

| EC50 | Ki [µM] | SMILES |
| --- | --- | --- |
| 5.71 µM | – | CCN(CC)CCOc1ccc2c(c1)C(=NNC(=O)c1ccccn1)c1cc(OCCN(CC)CC)ccc1-2 |
| > 30 µM (inactive) | – | CC(=O)Nc1cccc2c1C(=O)N(c1cccc(C)c1)C2=O |
| > 30 µM (inactive) | – | Cc1nc(N)sc1-c1csc(Nc2ncccn2)n1 |
| 3.48 µM | 3.12 | Cc1cc2ccccc2n1CCNC(=O)c1ccc(Br)o1 |
| > 30 µM (inactive) | – | C#CCOCCOCCOCCNc1nc(N2CCN(C(=O)[C@H](CCCCN)n3cc([C@@H](N)CC(C)C)nn3)CC2)nc(N2CCN(C(=O)[C@H](Cc3cc4ccccc4[nH]3)n3cc([C@@H](N)Cc4ccc(O)cc4)nn3)CC2)n1 |
| 5.14 µM | – | C#CCOCCOCCOCCNc1nc(N2CCN(C(=O)[C@H](Cc3ccc(O)cc3)n3cc([C@@H](N)CC(C)C)nn3)CC2)nc(N2CCN(C(=O)[C@H](Cc3cc4ccccc4[nH]3)n3cc([C@@H](N)CC(C)C)nn3)CC2)n1 |
| > 30 µM (inactive) | – | O=C1c2ccccc2-c2onc3ccc(NCCCn4ccnc4)c1c23 |
| > 30 µM (inactive) | – | C#CCOCCOCCOCCNc1nc(N2CCN(C(=O)[C@H](CCC(=O)O)n3cc(C(N)CO)nn3)CC2)nc(N2CCN(C(=O)[C@H](Cc3cc4ccccc4[nH]3)n3cc(C(N)[C@H](C)CC)nn3)CC2)n1 (some centres not stated) |
| > 30 µM (inactive) | – | CCN(CC)CCOC(=O)c1ccc(N/C=C(/C#N)c2nc(-c3ccc(OC)cc3)cs2)cc1 |
| > 30 µM (inactive) | – | CC[n+]1c(/C=C/C=C/N(C(C)=O)c2ccccc2)sc2ccccc21 |
| 0.34 µM | – | CCN1CCN(Cc2ccc(NC(=O)c3cc(NC(=O)C(=O)c4c[nH]c5ccccc45)cc(OC)c3)cc2C(F)(F)F)CC1 |
| 5.82 µM | – | CSc1cccc(NC(=S)N(CCCN2CCCC2)Cc2cccn2Cc2ccc(Cl)cc2)c1 |
| > 30 µM (inactive) | – | CCCCCCCCCCOC(=O)Cn1c(COc2cccc(C)c2)[n+](C)c2ccccc21 |
| 1.94 µM | – | COc1ccc2nc3cc(Cl)ccc3c(Nc3cc(C(C)C)c(O)cc3C)c2c1 |
| > 30 µM (inactive) | – | CCN(CC)CCOC(=O)c1ccc(N/C=C(/C#N)c2nc(-c3cccc(OC)c3)cs2)cc1 |
| > 30 µM (inactive) | – | CNC(=O)C(=O)Nc1c(C)cc(C)cc1C |
| 5.32 µM | 4.76 | COc1cccc(OC)c1-c1nn2c(-c3cc(-c4ccccc4)n[nH]3)nnc2s1 |
| > 30 µM (inactive) | – | C#CCOCCOCCOCCNc1nc(N2CCN(C(=O)C([C@@H](C)CC)n3cc(C(N)COC(=O)C(F)(F)F)nn3)CC2)nc(N2CCN(C(=O)[C@H](CCCCN)n3cc(C(N)[C@H](C)CC)nn3)CC2)n1 (some centres not stated) |
| > 30 µM (inactive) | – | CCN1CCN(Cc2ccc(NC(=O)c3cc(NC(=O)c4cncc(-c5cccs5)c4)cc(OC)c3)cc2C(F)(F)F)CC1 |
| > 30 µM (inactive) | – | COc1ccc(NC(=O)N(Cc2cc3cc(C)ccc3[nH]c2=O)CC2CCCO2)cc1 (configuration not stated) |
| > 30 µM (inactive) | – | CCCCCCCCCCOC(=O)Cn1c(COc2ccccc2C)[n+](C)c2ccccc21 |
| 2.6 µM | – | CCCCCCCCCCOC(=O)Cn1c(COc2ccccc2)[n+](C)c2ccccc21 |

| EC50 | Ki [µM] | SMILES |
| --- | --- | --- |
| 3.51 µM | 3.14 | CN1C(=O)/C(=C\c2ccc(-c3ccccc3)o2)SC1=S |
| > 30 µM (inactive) | – | CCCCCc1cc(=O)oc2c(C(CCN3CCCC(C)C3)c3ccc4c(c3)OCO4)c(OC)cc(OC)c12 (configuration not stated) |
| > 30 µM (inactive) | – | CCN(CC)CCOC(=O)c1ccc(NC(=O)c2cn(-c3ccccc3)nc2-c2cccs2)cc1 |
| 0.67 µM | – | NC(=NCCCCCCN=C(N)/N=C(\N)Nc1ccc(Cl)cc1)/N=C(\N)Nc1ccc(Cl)cc1 |
| > 30 µM (inactive) | – | Cc1ccccc1OCC(O)CNC1CCC(NCC(O)COc2ccccc2C)CC1 (configuration not stated) |
| 0.53 µM | 0.47 | CCN1/C(=C/C(C)=C/c2sc3ccccc3[n+]2CC)Sc2ccccc21 |
| 3.05 µM | – | CCCCCCCCCCOC(=O)Cn1c(COc2ccccc2OC)[n+](C)c2ccccc21 |
| 3.38 µM | 3.02 | CCN1C(c2ccccc2)=C(c2ccccc2)S/C1=C\C=C1/SC(=S)N(C)C1=O |
| 0.67 µM | 0.6 | CN(c1ccccc1)c1ccc(/C=c2\s/c(=C(/C#N)C(=O)C(C)(C)C)n(Cc3ccco3)c2=O)cc1 |
| 9.91 µM | – | Cc1ccc(-c2c[n+](CC(=O)Nc3nc(-c4ccc(F)cc4)cs3)c3n2CCC3)cc1 |
| > 30 µM (inactive) | – | CNc1nc(-c2c[nH]c3ccccc23)cs1 |
| 2.03 µM | – | CC[C@@H](C)[C@H](CNC)NC[C@@H](Cc1cccc2ccccc12)NCCc1cccc(C(F)(F)F)c1 |
| 4.33 µM | – | CCCCCCCCCCOC(=O)Cn1c(COc2cccc(OC)c2)[n+](C)c2ccccc21 |
| > 30 µM (inactive) | – | CCN1/C(=C/c2ccc3cc(C)ccc3[n+]2C)Sc2ccc3sccc3c21 |
| 4.95 µM | 4.43 | CCNc1ccc2noc3c2c1C(=O)c1ccccc1-3 |
| > 30 µM (inactive) | – | C#CCOCCOCCOCCNc1nc(N2CCN(C(=O)[C@H](Cc3cc4ccccc4[nH]3)n3cc([C@@H](N)CC(C)C)nn3)CC2)nc(N2CCN(C(=O)[C@H](Cc3cc4ccccc4[nH]3)n3cc([C@@H](N)CC(C)C)nn3)CC2)n1 |
| > 30 µM (inactive) | – | O=C1c2ccccc2-c2onc3ccc(NCc4ccco4)c1c23 |
| > 30 µM (inactive) | – | COc1cc(/C=N/NC(=O)c2cc3ccccc3cc2O)ccc1OCCN1CCCCC1 |
| 4.09 µM | 3.66 | Cc1nn2c(N)csc2nc1=O |
| 1.88 µM | 1.68 | CCN1/C(=C/c2ccc3cc(C)cc(C)c3[n+]2CC)Sc2cc(C)ccc21 |
| > 30 µM (inactive) | – | CN(C)CCCn1c(SCC(=O)Nc2nc(-c3cccc(Br)c3)cs2)nc2ccccc2c1=O |
| 1.15 µM | – | COc1ccc(Cn2cc3c(-c4ccc(F)cc4)nnc-3c3cc(OC)c(OC)cc32)cc1 |
